Laboratory results taken from paper PMC7044277 (Nature Communications, 2020).
Where “and” joins values, the source holds several entries; their conditions need not be identical. Equal entries are not always repeated.

What was measured:
[1] = target: DRD2 (D2 long receptor) wild-type (Homo sapiens, UniProt P14416); assay: Radioligand competition binding, [3H]-N-methylspiperone, HEK293T membranes; parameters: Fig_1a competition binding curve, source data: unit not given here; conditions: Log [L-741626]
DRD2 (D2 long receptor) wild-type, sequence (P14416 whole entry): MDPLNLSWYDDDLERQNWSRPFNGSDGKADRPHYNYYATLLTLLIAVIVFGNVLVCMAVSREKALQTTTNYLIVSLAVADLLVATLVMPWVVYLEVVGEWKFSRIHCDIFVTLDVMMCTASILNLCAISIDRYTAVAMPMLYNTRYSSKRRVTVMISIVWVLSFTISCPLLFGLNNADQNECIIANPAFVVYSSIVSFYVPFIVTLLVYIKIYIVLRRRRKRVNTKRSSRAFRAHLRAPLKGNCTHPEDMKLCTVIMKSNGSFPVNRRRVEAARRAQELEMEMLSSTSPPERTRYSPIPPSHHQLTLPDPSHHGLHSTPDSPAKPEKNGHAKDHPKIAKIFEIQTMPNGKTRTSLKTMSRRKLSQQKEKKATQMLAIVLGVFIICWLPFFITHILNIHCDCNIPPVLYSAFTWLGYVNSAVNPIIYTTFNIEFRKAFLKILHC

[2] = target: DRD3 wild-type (Homo sapiens, UniProt P35462); assay: Radioligand competition binding, [3H]-N-methylspiperone; parameters: Fig_1a competition binding curve, source data: unit not given here; conditions: for Fig_1a competition binding curve, source data: Log [L-741626]
DRD3 wild-type, sequence (P35462 whole entry): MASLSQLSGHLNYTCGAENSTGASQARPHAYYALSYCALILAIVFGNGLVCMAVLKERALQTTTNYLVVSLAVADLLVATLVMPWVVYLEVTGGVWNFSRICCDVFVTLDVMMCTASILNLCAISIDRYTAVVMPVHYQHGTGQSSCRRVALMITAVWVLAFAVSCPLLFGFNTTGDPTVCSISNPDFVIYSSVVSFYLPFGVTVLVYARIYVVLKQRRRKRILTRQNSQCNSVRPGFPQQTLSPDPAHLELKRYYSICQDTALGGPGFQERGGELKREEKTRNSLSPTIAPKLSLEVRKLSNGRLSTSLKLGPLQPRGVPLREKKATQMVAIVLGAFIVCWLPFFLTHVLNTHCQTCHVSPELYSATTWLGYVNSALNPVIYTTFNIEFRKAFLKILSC

[3] = target: T1, DRD4 (D4.4 variant) wild-type (Homo sapiens, UniProt P21917); assay: as above; conditions: for Fig_1a competition binding curve, source data: Log [L-741626]
T1 sequence (P21917 1-419): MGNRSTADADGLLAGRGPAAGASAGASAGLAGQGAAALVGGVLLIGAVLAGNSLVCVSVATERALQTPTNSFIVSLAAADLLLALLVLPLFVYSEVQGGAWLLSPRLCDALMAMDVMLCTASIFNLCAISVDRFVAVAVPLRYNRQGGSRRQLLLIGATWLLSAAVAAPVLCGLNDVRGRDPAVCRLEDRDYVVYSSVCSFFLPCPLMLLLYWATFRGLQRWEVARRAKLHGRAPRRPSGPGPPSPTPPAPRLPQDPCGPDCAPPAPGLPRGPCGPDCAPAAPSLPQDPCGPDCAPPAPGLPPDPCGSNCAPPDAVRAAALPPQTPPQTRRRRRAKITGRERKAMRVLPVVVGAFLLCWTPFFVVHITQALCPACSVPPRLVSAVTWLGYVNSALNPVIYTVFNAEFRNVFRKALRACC

[4] = target: T2, DRD2 L942.64A (Homo sapiens, UniProt P14416, L94A); format: binding; conditions: DRD2 L942.64A vs DRD2 wild-type
T2 construct: expressed in transfected cells; host or cells: HEK293T (ATCC CRL-11268)
T2 sequence (P14416 whole entry L94A): as the sequence (P14416 whole entry) above, with L94A counted along it

[5] = target: T3, DRD2 W100EL1A (Homo sapiens, UniProt P14416, W100A); format: binding; conditions: DRD2 W100EL1A vs wild-type
T3 construct: expressed in transfected cells; host or cells: HEK293T (ATCC CRL-11268)
T3 sequence (P14416 whole entry W100A): as the sequence (P14416 whole entry) above, with W100A counted along it

[6] = target: T4, DRD2 W100ECL1F (Homo sapiens, UniProt P14416, W100F); format: binding; conditions: DRD2 W100ECL1F vs wild-type
T4 construct: expressed in transfected cells; host or cells: HEK293T (ATCC CRL-11268)
T4 sequence (P14416 whole entry W100F): as the sequence (P14416 whole entry) above, with W100F counted along it

[7] = target: T5, DRD2 V1113.29A (Homo sapiens, UniProt P14416, V111A); format: binding; conditions: DRD2 V1113.29A vs wild-type
T5 construct: expressed in transfected cells; host or cells: HEK293T (ATCC CRL-11268)
T5 sequence (P14416 whole entry V111A): as the sequence (P14416 whole entry) above, with V111A counted along it

[8] = target: T6, DRD2 Y4087.35A (Homo sapiens, UniProt P14416, Y408A); format: binding; conditions: DRD2 Y4087.35A vs wild-type
T6 construct: expressed in transfected cells; host or cells: HEK293T (ATCC CRL-11268)
T6 sequence (P14416 whole entry Y408A): as the sequence (P14416 whole entry) above, with Y408A counted along it

[9] = target: T7, DRD2 F1103.28W (Homo sapiens, UniProt P14416, F110W); format: binding
T7 construct: expressed in transfected cells; host or cells: HEK293T (ATCC CRL-11268)
T7 sequence (P14416 whole entry F110W): as the sequence (P14416 whole entry) above, with F110W counted along it

[10] = target: T8, DRD2 F1103.28Y (Homo sapiens, UniProt P14416, F110Y); format: binding
T8 construct: expressed in transfected cells; host or cells: HEK293T (ATCC CRL-11268)
T8 sequence (P14416 whole entry F110Y): as the sequence (P14416 whole entry) above, with F110Y counted along it

[11] = target: T9, DRD2 F1103.28L (Homo sapiens, UniProt P14416, F110L); format: binding
T9 construct: expressed in transfected cells; host or cells: HEK293T (ATCC CRL-11268)
T9 sequence (P14416 whole entry F110L): as the sequence (P14416 whole entry) above, with F110L counted along it

[12] = target: T10, DRD2 F1103.28C (Homo sapiens, UniProt P14416, F110C); format: binding; conditions: DRD2 F1103.28C vs wild-type
T10 construct: expressed in transfected cells; host or cells: HEK293T (ATCC CRL-11268)
T10 sequence (P14416 whole entry F110C): as the sequence (P14416 whole entry) above, with F110C counted along it

[13] = target: T11, DRD2 F1103.28E (Homo sapiens, UniProt P14416, F110E); format: binding; conditions: DRD2 F1103.28E vs wild-type
T11 construct: expressed in transfected cells; host or cells: HEK293T (ATCC CRL-11268)
T11 sequence (P14416 whole entry F110E): as the sequence (P14416 whole entry) above, with F110E counted along it

[14] = target: DRD3 F1063.28A (Homo sapiens, UniProt P35462, F106A); assay: biochemical; format: binding
DRD3 F1063.28A, sequence (P35462 whole entry F106A): as the sequence (P35462 whole entry) above, with F106A counted along it

[15] = target: DRD2 F1103.28A (Homo sapiens, UniProt P14416, F110A); format: binding; parameters: expressed in transfected cells; host or cells: HEK293T (ATCC CRL-11268)
DRD2 F1103.28A, sequence (P14416 whole entry F110A): as the sequence (P14416 whole entry) above, with F110A counted along it

## OC1(c2ccc(Cl)cc2)CCN(Cc2c[nH]c3ccccc23)CC1 [L-741626]
[1]; M -4, replicates
  Fig_1a competition binding curve, source data: -1.355 and 1.993 and -0.6377 and -1.594 and 3.428 and -1.8334
[1]; M -7
  Fig_1a competition binding curve, source data: 29.733 and 32.3635 and 33.0809 and 32.8418 and 34.0375 and 33.3201
[1]; M -8
  Fig_1a competition binding curve, source data: 78.2782 and 80.4304 and 73.2563 and 83.061 and 72.778 and 84.4958
[1]; M -8.5
  Fig_1a competition binding curve, source data: 93.8222 and 94.0614 and 107.453 and 92.6265 and 93.1048
[1]; M -9
  Fig_1a competition binding curve, source data: 100.279 and 96.4528 and 102.67 and 87.1264 and 100.04 and 104.584
[1]; M -9.5
  Fig_1a competition binding curve, source data: 97.4093 and 108.171 and 98.605 and 95.0179 and 103.388
[1]; M -10
  Fig_1a competition binding curve, source data: 91.5385 and 88.2344 and 89.4739
[1]; M -11
  Fig_1a competition binding curve, source data: 89.0395 and 93.1048 and 90.4743 and 90.2352 and 86.4089 and 84.7349
[1]; M -12
  Fig_1a competition binding curve, source data: 100.518 and 86.6481 and 95.4962 and 94.7788 and 98.1268 and 94.5397
[1]; M -13
  Fig_1a competition binding curve, source data: 93.8222 and 89.2786 and 87.6046 and 85.6915 and 92.3874 and 93.1048
[2]
  Ki: 186 nM
[2]; M -6
  Fig_1a competition binding curve, source data: 32.8337 and 26.7408 and 38.6364 and 33.7041 and 31.0928
[2]; M -7
  Fig_1a competition binding curve, source data: 71.7118 and 82.4468 and 88.2495 and 78.675 and 74.323 and 84.4778
[2]; M -8.5
  Fig_1a competition binding curve, source data: 107.108 and 98.6944 and 100.725 and 87.3791 and 104.497 and 101.596
[2]; M -9
  Fig_1a competition binding curve, source data: 98.4043 and 97.5338 and 93.7621 and 84.7679 and 88.8298 and 89.7002
[2]; M -9.5
  Fig_1a competition binding curve, source data: 87.3791 and 78.3849 and 90.2805 and 81.5764 and 85.058 and 98.1141
[2]; M -10
  Fig_1a competition binding curve, source data: 76.9342 and 89.7002 and 81.8665 and 72.2921 and 84.1876 and 72.0019
[2]; M -11
  Fig_1a competition binding curve, source data: 74.6132 and 85.6383 and 84.7679 and 77.8046 and 89.7002 and 91.441
[2]; M -12
  Fig_1a competition binding curve, source data: 84.7679 and 85.9284 and 102.466 and 78.0948 and 88.2495
[2]; M -13
  Fig_1a competition binding curve, source data: 63.0077 and 75.4836 and 75.1934 and 78.675 and 77.5145 and 81.2863
[3]
  Ki: 170 nM
[3]; M -7
  Fig_1a competition binding curve, source data: 75.0526 and 67.9047 and 62.8591 and 59.9159 and 75.8935
[3]; M -8
  Fig_1a competition binding curve, source data: 91.8711 and 84.3027 and 93.5529 and 96.4962
[3]; M -8.5
  Fig_1a competition binding curve, source data: 103.224 and 99.4394 and 102.803 and 91.8711
[3]; M -9
  Fig_1a competition binding curve, source data: 79.2572 and 91.8711 and 89.7687 and 85.9846 and 96.9166 and 113.735
[3]; M -9.5
  Fig_1a competition binding curve, source data: 89.7687 and 87.246 and 104.905 and 87.6664 and 93.1325 and 88.9278
[3]; M -10
  Fig_1a competition binding curve, source data: 74.6321 and 83.0413 and 75.8935 and 70.4275 and 85.5641 and 84.3027
[3]; M -11
  Fig_1a competition binding curve, source data: 92.712 and 78.8367 and 85.1437 and 96.4962 and 77.9958 and 82.6209
[3]; M -12
  Fig_1a competition binding curve, source data: 77.1549 and 85.1437 and 89.7687 and 83.4618 and 81.3595
[3]; M -13
  Fig_1a competition binding curve, source data: 88.0869 and 85.5641 and 82.6209 and 79.6776 and 79.2572
[4]
  ΔpKi (mutant-WT): -0.45
[5]
  ΔpKi (mutant-WT): -0.79
[6]
  ΔpKi (mutant-WT): -0.85
[7]
  ΔpKi (mutant-WT): -0.26
[8]
  ΔpKi (mutant-WT): -0.10
[9]; DRD2 F1103.28W vs wild-type
  ΔpKi (mutant-WT): -0.93
[9]; DRD2 Phe110^3.28Trp vs wild-type DRD2
  binding reduced, mutant vs wild type: 8.51 fold
[10]; DRD2 F1103.28Y vs wild-type
  ΔpKi (mutant-WT): -1.76
[10]; DRD2 Phe110^3.28Tyr vs wild-type DRD2
  binding reduced, mutant vs wild type: 57.54 fold
[11]; DRD2 F1103.28L vs wild-type
  ΔpKi (mutant-WT): 1.27
[11]; DRD2 Phe110^3.28Leu vs wild-type DRD2
  binding enhanced, mutant vs wild type: 18.65 fold
[12]
  ΔpKi (mutant-WT): 0.61
[13]
  ΔpKi (mutant-WT): 0.03
[14]
  Ki: 5.37 nM
[14]; DRD3 F1063.28A vs DRD3 wild-type
  ΔpKi (mutant-WT): 1.54
[14]; DRD3 Phe106^3.28Ala vs wild-type DRD3
  binding affinity increased, mutant vs wild type: 34.67 fold
[15]; DRD2 F1103.28A vs wild-type
  ΔpKi (mutant-WT): 2.14
[15]; DRD2 Phe110^3.28Ala vs wild-type DRD2
  affinity increase (binding enhanced), mutant vs wild type: 144.18 fold
